Results: publication PMC8231113, “Protein Secondary Structure Affects Glycan Clustering in Native Mass Spectrometry” (Life, 2021)
Where two headings read alike, the source gives them in different places.

Legend:
[1] = biological target: T1, L-lactic dehydrogenase from rabbit muscle (LDH) (Oryctolagus cuniculus, UniProt P13491); experiment: Native MS glycan clustering to reference protein LDH; assay type: binding; details: on LDH
T1 construct: L-lactic dehydrogenase from rabbit muscle (LDH, CAS number 9001-60-9); purchased Sigma-Aldrich (Merck, Germany); host or cells: rabbit muscle
Protocol: (§1) Prior to MS analysis, purified P dimers were buffer exchanged to 150 mM ammonium acetate (Sigma-Aldrich, reagent grade ≥98%) at pH 7 via centrifugal filter units at 12,000× g at 4 °C (Vivaspin 500, MWCO 10000, Sartorius). Glycans for native MS analysis were mixed with 1 µM (per monomer) purified GII.4 Saga P dimer and 3 µM of the reference proteins at indicated concentrations. Native mass spectra were measured at room temperature in positive ion mode on a high mass modified LCT Premier mass spectrometer (Waters/Micromass, UK and MS Vision, the Netherlands) with a nano-ESI source. In house-made gold-coated electrospray capillaries were used for direct-sample infusion without any accessory chromatographic separation. The voltages and pressures were optimized for non-covalent protein complexes. The gas pressure used in the source hexapole was set between 6.5 and 6.8 × 10^−2 mbar argon optimized for minimal complex dissociation and the backing pressure of the source roughing pump was set between 7.0 and 8.5 mbar. Spectra were recorded with applied voltages for the capillary and cone of 1.20 kV and 240 V, respectively. Note that charge state distributions for P dimers were sometimes slightly shifted as was the degree of glycan clustering per charge state. These changes were highly variable and not quantifiable.
(§2) For calibration of the raw data, a 25 mg/mL cesium iodide spectrum from the same day was used. MassLynx V4.1 (Waters, Manchester, UK) was used to assign peak series to protein species and to determine the mass after minimal smoothing. Furthermore, OriginPro 2016 SR2 (OriginLab, Northampton, MA, USA) was used for spectral deconvolution and curve fitting. Correction for nonspecific protein-ligand clustering was performed as described. Corrected peak areas were averaged and normalized to the free-protein signal. Data were based on at least three independent measurements. Python code Panda and Numpy package were used to calculate the specific binding of P dimers according to the glycan clustering ratio obtained from the selected reference protein candidates. Seaborn and matplotlib.pyplot package were imported into a python script to plot the results. The module of sklearn.linear model was applied for linear regression. The matplotlib and heatmap package were used to plot the heatmap.
(§3) Theoretically, the KD is calculated by measuring the concentration of the three components (Pfree, Lfree, PL) in solution. Usually, these values are only indirectly accessible because they require ligand titration up to binding saturation. However, native MS allows for the directly measurement of Pfree and PL, from which Lfree can be calculated using the input concentrations. In the present work, the non-covalent interaction was measured in the gas phase assuming identical ESI and detection efficiency for free and glycan-associated proteins, both for the analyte and the reference protein. […] For P dimers, the equations reflect glycan binding to the individual monomers assuming that binding sites on each monomer are equal and independent.
Using R described in Equation (3), the KD calculation can be re-written into Equation (4) with the known initial concentration of glycan ligand [L0] and protein [P0], adapted from Sun et al.:(3) R=PLequil∕Pequil=∑nA(PL^n+)∕n∕∑nA(P^n+)∕n (4) KD =L0−RP0/1+R/R
For the carbohydrate-binding experiments, it was essential to keep the initial protein concentrations and pH value constant during the analysis of the protein-carbohydrate solutions. While acidification occurs in any ESI droplet, the remaining solution in the capillary changes pH over time. Therefore, accumulated spectra were obtained within 10 min after the voltages were applied to minimize the influence of pH changes during the measurements. […]

[2] = biological target: GII.4 Saga P dimer (Norovirus GII.4 (human norovirus), UniProt B5BTR7); experiment: Native MS, specific glycan binding to P dimer after reference protein correction; parameters: species or system human norovirus (hNoV); details: for Kd: read-out: KD for HBGA B
Protocol: as §1, §2
Data from native ESI MS measurements were translated into dissociation constants (KD values). The detailed calculations were based on the equations listed below. A protein (P) and a glycan ligand (L) form a complex through non-covalent interactions leading to a reversible association described by (Equation (1)):(1) P+L⇌PL when equilibrium is reached, the KD can be calculated directly from the concentrations via the law of mass action (Equation (2)):(2) KD=[Pfree][Lfree]/[PL]
as §3
Using R described in Equation (3), the KD calculation can be re-written into Equation (4) with the known initial concentration of glycan ligand [L0] and protein [P0], adapted from Sun et al.:(3) R=PLequil∕Pequil=∑nA(PL^n+)∕n∕∑nA(P^n+)∕n (4) KD =L0−RP0/1+R/R […]

[3] = biological target: wildtype GII.4 Saga P dimer; details: wildtype P dimer; read-out: KD determined by NMR; cited from earlier work

Structure (SMILES): CC(=O)N[C@H]1C(O)O[C@H](CO)[C@@H](O)[C@@H]1O[C@@H]1O[C@H](CO)[C@H](O)[C@H](O[C@H]2O[C@H](CO)[C@H](O)[C@H](O)[C@H]2O)[C@H]1O[C@@H]1O[C@@H](C)[C@@H](O)[C@@H](O)[C@@H]1O (some centres unmarked) [HBGA B, Galα1-3(Fucα1-2)Galβ1-3GlcNAc]
- Glycan-Clustering Ratio R ([1]; 100 µM glycan): 0.38±0.03
- Glycan-Clustering Ratio R ([1]; 200 µM glycan): 0.54±0.05
- Glycan-Clustering Ratio R ([1]; 300 µM glycan): 0.69±0.02
- Glycan-Clustering Ratio R ([1]; 400 µM glycan): 0.77±0.05
- Glycan-Clustering Ratio R ([1]; 500 µM glycan): 1.02 ± 0.04
- specific binding after ADH based protein clustering correction ([2]; Gb4: any listed glycan concentration, HBGA B: 500 µM): a single binding event
- Kd ([2]; correction with ref. protein ADH): 24000 ± 16000 µM
- Kd ([2]; correction with ref. protein CA): 400 ± 100 µM
- Kd ([2]; correction with ref. protein Cyt c): 160 ± 50 µM
- Kd ([2]; correction with ref. protein GFP): 900 ± 350 µM
- Kd ([2]; correction with ref. protein Myo): 250 ± 100 µM
- Kd ([2]; correction with ref. protein Ubq): 200 ± 130 µM
- Bound number of carbohydrates on Saga P dimer ([2]; ref. protein ADH, glycan 100 µM): 0
- Bound number of carbohydrates on Saga P dimer ([2]; ref. protein ADH, glycan 200 µM): 0
- Bound number of carbohydrates on Saga P dimer ([2]; ref. protein ADH, glycan 300 µM): 0
- Bound number of carbohydrates on Saga P dimer ([2]; ref. protein ADH, glycan 400 µM): 0
- Bound number of carbohydrates on Saga P dimer ([2]; ref. protein ADH, glycan 500 µM): 1
- Bound number of carbohydrates on Saga P dimer ([2]; ref. protein CA, glycan 100 µM): 1
- Bound number of carbohydrates on Saga P dimer ([2]; ref. protein CA, glycan 200 µM): 2
- Bound number of carbohydrates on Saga P dimer ([2]; ref. protein CA, glycan 300 µM): 2
- Bound number of carbohydrates on Saga P dimer ([2]; ref. protein CA, glycan 400 µM): 2
- Bound number of carbohydrates on Saga P dimer ([2]; ref. protein CA, glycan 500 µM): 2
- Bound number of carbohydrates on Saga P dimer ([2]; ref. protein Cyto c, glycan 100 µM): 2
- Bound number of carbohydrates on Saga P dimer ([2]; ref. protein Cyto c, glycan 200 µM): 3
- Bound number of carbohydrates on Saga P dimer ([2]; ref. protein Cyto c, glycan 300 µM): 4
- Bound number of carbohydrates on Saga P dimer ([2]; ref. protein Cyto c, glycan 400 µM): 4
- Bound number of carbohydrates on Saga P dimer ([2]; ref. protein Cyto c, glycan 500 µM): 4
- Bound number of carbohydrates on Saga P dimer ([2]; ref. protein GFP, glycan 100 µM): 1
- Bound number of carbohydrates on Saga P dimer ([2]; ref. protein GFP, glycan 200 µM): 1
- Bound number of carbohydrates on Saga P dimer ([2]; ref. protein GFP, glycan 300 µM): 2
- Bound number of carbohydrates on Saga P dimer ([2]; ref. protein GFP, glycan 400 µM): 2
- Bound number of carbohydrates on Saga P dimer ([2]; ref. protein GFP, glycan 500 µM): 2
- Bound number of carbohydrates on Saga P dimer ([2]; ref. protein LDH, glycan 100 µM): 0
- Bound number of carbohydrates on Saga P dimer ([2]; ref. protein LDH, glycan 200 µM): 0
- Bound number of carbohydrates on Saga P dimer ([2]; ref. protein LDH, glycan 300 µM): 0
- Bound number of carbohydrates on Saga P dimer ([2]; ref. protein LDH, glycan 400 µM): 0
- Bound number of carbohydrates on Saga P dimer ([2]; ref. protein LDH, glycan 500 µM): 1
- Bound number of carbohydrates on Saga P dimer ([2]; ref. protein Myo, glycan 100 µM): 2
- Bound number of carbohydrates on Saga P dimer ([2]; ref. protein Myo, glycan 200 µM): 3
- Bound number of carbohydrates on Saga P dimer ([2]; ref. protein Myo, glycan 300 µM): 3
- Bound number of carbohydrates on Saga P dimer ([2]; ref. protein Myo, glycan 400 µM): 3
- Bound number of carbohydrates on Saga P dimer ([2]; ref. protein Myo, glycan 500 µM): 4
- Bound number of carbohydrates on Saga P dimer ([2]; ref. protein Ubq, glycan 100 µM): 2
- Bound number of carbohydrates on Saga P dimer ([2]; ref. protein Ubq, glycan 200 µM): 3
- Bound number of carbohydrates on Saga P dimer ([2]; ref. protein Ubq, glycan 300 µM): 4
- Bound number of carbohydrates on Saga P dimer ([2]; ref. protein Ubq, glycan 400 µM): 4
- Bound number of carbohydrates on Saga P dimer ([2]; ref. protein Ubq, glycan 500 µM): 4
- Bound number of carbohydrates on Saga P dimer ([2]; ref. protein apo-TFF, glycan 100 µM): 1
- Bound number of carbohydrates on Saga P dimer ([2]; ref. protein apo-TFF, glycan 200 µM): 1
- Bound number of carbohydrates on Saga P dimer ([2]; ref. protein apo-TFF, glycan 300 µM): 1
- Bound number of carbohydrates on Saga P dimer ([2]; ref. protein apo-TFF, glycan 400 µM): 1
- Bound number of carbohydrates on Saga P dimer ([2]; ref. protein apo-TFF, glycan 500 µM): 2
- Kd [3]: 12000 µM
